The text below walks through data of US20240382589A1, “Synergistic Inhibition of eIF5A and Notch Signaling in Intermediate Tregs” (The University of Toledo, priority 2022, published 2024).

The target in series [1] is T1, deoxyhypusine synthase (DHS) (Homo sapiens, UniProt P49366).
T1 sequence (P49366 1-369): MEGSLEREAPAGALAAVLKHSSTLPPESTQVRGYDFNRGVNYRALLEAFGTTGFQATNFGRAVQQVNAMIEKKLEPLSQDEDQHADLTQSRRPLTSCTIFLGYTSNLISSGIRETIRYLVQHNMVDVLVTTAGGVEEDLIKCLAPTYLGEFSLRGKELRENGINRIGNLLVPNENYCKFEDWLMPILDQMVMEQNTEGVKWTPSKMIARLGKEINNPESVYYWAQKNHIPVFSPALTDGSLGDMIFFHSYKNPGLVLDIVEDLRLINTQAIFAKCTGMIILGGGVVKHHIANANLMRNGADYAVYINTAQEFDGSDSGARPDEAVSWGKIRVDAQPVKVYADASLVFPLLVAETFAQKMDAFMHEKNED
The conditions noted are these: cited from earlier work.

The test system of series [2] is anti-GAD65, anti-IA2 and anti-insulin autoantibodies. Briefly: Anti-GAD65, anti-IA2 and anti-insulin autoantibody ELISA in mouse serum. The class given is in vivo. To be noted: TID mice; treatment with GC7 or anti-DLL4. The procedure:
Anti-GAD65, anti-IA2, and anti-insulin autoantibodies were measured in mice serum using
an Anti-GAD65 ELISA kit (Kronus, Star, ID) according to the manufacturer's instructions. Mice anti-insulin antibodies were measured using a mouse insulin autoantibody (IAA) ELISA kit (Abbexa, catalog #abx053161. Abbexa LLC, Houston, TX, United States; with a positive predictive value range between 0.16 and 10 ng/ml). Anti-IA2 autoantibodies were also measured using a human IA2 autoantibody (IA2Ab) ELISA kit (Kronus, Star, ID) following the manufacturers' manual.

In series [3] the test system is CD4, CD8 and CD25 T cells isolated from PLN of TID mice. Briefly: In vitro co-stimulation / CFSE proliferation of T cells from PLN of TID mice. In kind it is cell-based, mouse. The procedure:
Purified CD4, CD8, and CD25 cells were isolated from TID mice using the mice CD4 T Cell Isolation Kit (#130-104-454), CD8a+ T Cell Isolation Kit II (#130-095-236), and CD4+ CD25+ Regulatory T Cell Isolation Kit (Cat no: 130-091-041) following standard protocol. Briefly, after sacrificing the TID mice, pancreatic lymph nodes (PLN) were isolated and single cell suspensions were prepared. Non-CD4 T cells and non-CD8 T cells were isolated using magnetically labeled microbeads. Non-CD4 T cells were retained in the MACS column and non-touch enriched CD4 and CD8 cells were eluted from the column. Simultaneously CD25 positive cells were separated from the CD4 clute with anti-CD25PE microbeads with more than 90% purity. Single cell suspensions of CD4, CD8, and CD25^− T cells were stained with carboxyfluorescein succinimidyl ester (CFSE) to track the induced proliferation. Single cell suspensions of purified CD4, CD8, and CD25 T cells (CFSE-labeled) were co-stimulated with recombinant human GAD65 (rhGAD65) protein ([…]), GC7 (100 mM), anti-DLL4 ([…]), rhGAD65+GC7, rhGAD65+GC7+anti-DLL4, or CD3+CD28 stimulated for 4 days (n=7). CD4 T cells (CFSE-labeled) were further stained with fluorochrome-conjugated antibodies against mouse IL-17(clone 559502, PE), IFNg (clone 554413, APC), and forkhead box P3 (Foxp3) (clone MF23, Alexa Fluor@488, Alexa Fluor@647). In vitro proliferation assays were analyzed by FLOWJO V10 Beta software using fix ratio, fix CV, and fix background from unstimulated cells.

Another series deals with TID mice and NOD mice. The conditions noted are these: cited from earlier work.

Usually IC50 stands for the concentration needed to halve the response being measured. As for `N=C(N)NCCCCCCCN` [GC7, N1-guanyl-1,7-diaminoheptane], in series [1], the IC50 is 1.7e-05 mM. In series [2], the GAD65 antibody titer result is on record as “significantly reduced”. The “Treg population (expression of CD25 and FOXP3 on CD3+ CD4 T cells)” value in series [3] (GC7 (100 mM), 4 days) is given as “significantly enriched”. In series [3] (GC7 (100 mM), CFSE), the “replicative index of Treg cells (Treg peak)” value was “significant Treg peak”. Also, the “proliferation index of CD8 T cells” value in series [3] (compared to conventional stimulation with anti-(CD3+CD28)/rhGAD65) is given as “not significant”. For the same molecule, in the series with TID mice and NOD mice, the “adverse effect in previous in vivo studies” value is recorded as “did not reveal any significant adverse effect”.

On to `C/C(=N\NC(=N)N)c1cc(NC(=O)CCCCCCCCC(=O)Nc2cc(/C(C)=N/NC(=N)N)cc(/C(C)=N/NC(=N)N)c2)cc(/C(C)=N/NC(=N)N)c1` [Semapimod], for which the IC50 in series [1] was roughly 2 mM.
